Laboratory results taken from paper PMC5760531, “Action Potential Recording and Pro-arrhythmia Risk Analysis in Human Ventricular Trabeculae” (Frontiers in Physiology, 2018).

How the values were obtained:
[1] = human free (unbound) effective therapeutic plasma concentration used to calculate multiples; cited from earlier work
[2] = system: human ventricular trabeculae; assay: Action potential recording and pro-arrhythmic score analysis in human ventricular trabeculae (hVT); conditions: 1Hz; for Beat Escape (raw data) / EADs (raw data) / Refractoriness Escape (raw data): n=4 trabeculae;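 as to all read-outs here: sharp microelectrode action potential recordings at 37°C in Tyrode-perfused trabeculae, 4 cumulative concentrations each applied 31 min, values averaged over last 30 APs, vehicle 0.1% DMSO as control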
Protocol: Briefly, the human heart was transferred into a dissection vessel containing a cold (4°C), fresh proprietary dissection solution. The heart was maintained completely submerged in dissection solution. Ventricular trabeculae were dissected and transferred to the recording chamber.
Briefly, a single tissue was mounted into the experimental chamber filled with oxygenated Tyrode's external solution. The temperature of the solution was maintained at 37°C with flow rate at 5 mL per minute. The tissue was allowed to equilibrate for 30–60 min with stimulation (3 V, 3 ms) at a frequency of 1.0 Hz. High impedance borosilicate microelectrodes were prepared with a tip resistance of 10–20 MΩ once filled with 3 M KCl. Upon tissue impalement, the membrane potential was allowed to stabilize (typically, around −85 mV). Tissues with resting membrane potentials more positive than −75 mV were rejected. Bipolar stimulation at 1.5x threshold was applied and recordings were performed in continuous mode with sampling at 20 kHz using ADInstruments and LabChart Software.
Interruption of perfusion/oxygenation; (2). Absence of Aps following stimulation at baseline; (3). Time frame of drug exposure not respected; (4). Unstable response to stimulation at baseline; (5). Resting membrane potential (RMP) > −75 mV; 7). Maximal amplitude of AP (AMAX) <70 mV; 8). AP duration at 90% repolarization (APD90) <200 ms or >450 ms.
Experimental Procedure: Each test article was evaluated at 4 concentrations in 4 ventricular trabeculae derived from a minimum of 2 donor hearts. Testing concentrations were chosen based upon human free ETPC, aiming to cover 1–100-fold of human free ETPC. […] Briefly, following stabilization of each tissue, APs were collected and assessed for 31 min in vehicle control solution (Tyrode with 0.1% DMSO) at stimulation frequencies of 1 Hz for 25 min, 2 Hz for 3 min and then 1 Hz for 3 min. Following this vehicle control period, 4 concentrations of a test compound were applied sequentially and cumulatively. Each concentration was applied for 31 min with the same stimulation sequence as in vehicle controls.
For each frequency tested, the last 30 APs acquired at the end of the period were averaged for vehicle controls and for each test article concentration. Analysis at 1 Hz included only the last 30 APs of the initial 25-min incubation period. The following AP parameters and pro-arrhythmia variables were analyzed offline upon the completion of recordings:
• RMP (mV) • AMAX (mV) • AP duration at percent repolarization (APD20, APD30, APD50, APD60, APD90) (ms) • Short term variability analysis of AP duration (STV): Beat-to-beat variability of repolarization was quantified as STV from APD90 Poincare plots over a period of 30 sec.
Compound effects were quantified relative to the data collected during the vehicle control period (see Figure 1). […] Additionally, based on AnaBios historical data, threshold values for changes over baseline control for AP instability, APD alternans, Maximum APD dispersion and ERP (APD) were based upon an effect level of 10%. When applicable, differences were tested for statistical significance using the unpaired Student's t-test. A value of P < 0.05 was considered significant.
AP parameters and pro-arrhythmia variables were combined into a meaningful, single score to assess the pro-arrhythmic risk of a compound at each concentration tested. The pro-arrhythmic potential of compounds at 1 or 2 Hz was determined by assigning a weighted scale to each variable (Table 1).

## Cc1cccc(C)c1OCC(C)N (stereo not drawn) [MEXILETINE, Mexiletine]
[1]
  Free ETPC: 4.1 µM
[2]; 0.7-FOLD free ETPC (4.1µM)
  AMAX (average raw data): 111
  AMAX percentage change compared to vehicle control: 0%
  APD30 (average raw data): 174
  APD30 percentage change compared to vehicle control: -5%
  APD50 (average raw data): 231
  APD50 percentage change compared to vehicle control: -3%
  APD90 (average raw data): 321
  APD90 percentage change compared to vehicle control: -1%
  Alternans (average raw data): 0.72
  Alternans percentage change compared to vehicle control: 7%
  Beat Escape percentage change compared to vehicle control: 25%
  EADs percentage change compared to vehicle control: 0%
  ERP (average raw data): 0.43
  ERP percentage change compared to vehicle control: 1%
  Max Dispersion (average raw data): 3.75
  Max Dispersion percentage change compared to vehicle control: 0%
  RMP (average raw data): -91
  RMP percentage change compared to vehicle control: 1%
  Refractoriness Escape percentage change compared to vehicle control: 0%
  STV (average raw data): 0.51
  STV percentage change compared to vehicle control: 1%
  Triangulation (average raw data): 147
  Triangulation percentage change compared to vehicle control: 4%
  Beat Escape (raw data): 1
  EADs (raw data): 0
  Refractoriness Escape (raw data): 0
[2]; 7-FOLD free ETPC (4.1µM)
  AMAX (average raw data): 109
  AMAX percentage change compared to vehicle control: -3%
  APD30 (average raw data): 158
  APD30 percentage change compared to vehicle control: -13%
  APD50 (average raw data): 206
  APD50 percentage change compared to vehicle control: -14%
  APD90 (average raw data): 297
  APD90 percentage change compared to vehicle control: -8%
  Alternans (average raw data): 0.68
  Alternans percentage change compared to vehicle control: 0%
  Beat Escape percentage change compared to vehicle control: 25%
  EADs percentage change compared to vehicle control: 0%
  ERP (average raw data): 0.41
  ERP percentage change compared to vehicle control: -5%
  Max Dispersion (average raw data): 2.82
  Max Dispersion percentage change compared to vehicle control: -25%
  RMP (average raw data): -91
  RMP percentage change compared to vehicle control: 1%
  Refractoriness Escape percentage change compared to vehicle control: 0%
  STV (average raw data): 0.49
  STV percentage change compared to vehicle control: -3%
  Triangulation (average raw data): 140
  Triangulation percentage change compared to vehicle control: -1%
  Beat Escape (raw data): 1
  EADs (raw data): 0
  Refractoriness Escape (raw data): 0
[2]; 24-FOLD free ETPC (4.1µM)
  AMAX (average raw data): 102
  AMAX percentage change compared to vehicle control: -9%
  APD30 (average raw data): 137
  APD30 percentage change compared to vehicle control: -25%
  APD50 (average raw data): 180
  APD50 percentage change compared to vehicle control: -25%
  APD90 (average raw data): 282
  APD90 percentage change compared to vehicle control: -13%
  Alternans (average raw data): 17.51
  Alternans percentage change compared to vehicle control: 2481%
  Beat Escape percentage change compared to vehicle control: 75%
  EADs percentage change compared to vehicle control: 0%
  ERP (average raw data): 0.39
  ERP percentage change compared to vehicle control: -8%
  Max Dispersion (average raw data): 50.33
  Max Dispersion percentage change compared to vehicle control: 1242%
  RMP (average raw data): -89
  RMP percentage change compared to vehicle control: -1%
  Refractoriness Escape percentage change compared to vehicle control: 0%
  STV (average raw data): 12.96
  STV percentage change compared to vehicle control: 2873%
  Triangulation (average raw data): 145
  Triangulation percentage change compared to vehicle control: 3%
  Beat Escape (raw data): 3
  EADs (raw data): 0
  Refractoriness Escape (raw data): 0
[2]; 73-FOLD free ETPC (4.1µM)
  AMAX (average raw data): 86
  AMAX percentage change compared to vehicle control: -22%
  APD30 (average raw data): 120
  APD30 percentage change compared to vehicle control: -27%
  APD50 (average raw data): 165
  APD50 percentage change compared to vehicle control: -27%
  APD90 (average raw data): 277
  APD90 percentage change compared to vehicle control: -9%
  Alternans (average raw data): 2.53
  Alternans percentage change compared to vehicle control: 272%
  EADs percentage change compared to vehicle control: 0%
  ERP (average raw data): 0.42
  ERP percentage change compared to vehicle control: -1%
  Max Dispersion (average raw data): 6.30
  Max Dispersion percentage change compared to vehicle control: 68%
  RMP (average raw data): -76
  RMP percentage change compared to vehicle control: -13%
  Refractoriness Escape percentage change compared to vehicle control: 0%
  STV (average raw data): 1.74
  STV percentage change compared to vehicle control: 182%
  Triangulation (average raw data): 157
  Triangulation percentage change compared to vehicle control: 12%
  Beat Escape (raw data): 1
